# Measured values: the supplement of paper PMC10307832
# Compound: CC(C)(C)c1nc(-c2cccc(NS(=O)(=O)c3c(F)cccc3F)c2F)c(-c2ccnc(N)n2)s1 [Dabrafenib] + CCNC(=O)c1noc(-c2cc(C(C)C)c(O)cc2O)c1-c1ccc(CN2CCOCC2)cc1 [Luminespib] (partner 0.01 µM)
# Test: relative viability (nuclei count vs DMSO), 5 days (fraction); higher = more cells survive
# Details: first compound 0.003 µM
# Method in brief: (§1)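 Dosing by pin tool came one day after lung cancer cell lines were seeded in 1536-well plates, using either one drug or a fixed anchor-drug dose plus five library-drug doses (not always all listed) in √10 steps. After 5 days, nuclei were counted on 4× images. Relative viability is treated-well nuclei count divided by vehicle-well nuclei count, and values are medians of duplicate plates.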
row,Cell Line,relative viability
1,NCI-H1666,0.988
2,NCI-H2023,0.866
3,HARA,0.83
4,NCI-H1395,0.663
5,SK-MES-1,0.676

# Same assay, conditions: first compound 0.009487 µM
row,Cell Line,relative viability
1,NCI-H1666,0.995
2,NCI-H2023,0.817
3,NCI-H322M,1.05
4,HARA,0.818
5,NCI-H1395,0.755
6,SK-MES-1,0.973

# Same assay, conditions: first compound 0.03 µM
row,Cell Line,relative viability
1,NCI-H1666,1.04
2,NCI-H2023,0.755
3,NCI-H322M,0.692
4,NCI-H1395,0.661
5,SK-MES-1,0.86

# Same assay, conditions: first compound 0.09487 µM
row,Cell Line,relative viability
1,NCI-H1666,0.997
2,NCI-H2023,0.661
3,NCI-H322M,0.856
4,HARA,0.621
5,NCI-H1395,0.657
6,SK-MES-1,0.8

# Same assay, conditions: first compound 0.3 µM
row,Cell Line,relative viability
1,NCI-H1666,1.11
2,NCI-H2023,0.84
3,NCI-H322M,0.803
4,HARA,0.726
5,NCI-H1395,0.567
6,SK-MES-1,0.688

# Compound: CC(C)(C)c1nc(-c2cccc(NS(=O)(=O)c3c(F)cccc3F)c2F)c(-c2ccnc(N)n2)s1 [Dabrafenib] + Cc1nc(Nc2ncc(C(=O)Nc3c(C)cccc3Cl)s2)cc(N2CCN(CCO)CC2)n1 [Dasatinib] (partner 0.075 µM)
# Test: as above
# Details: first compound 0.003 µM
# Method in brief: as §1
row,Cell Line,relative viability
1,NCI-H1666,0.84
2,NCI-H2023,0.559
3,HARA,0.242
4,NCI-H1395,0.375
5,SK-MES-1,0.323

# Same assay, conditions: first compound 0.009487 µM
row,Cell Line,relative viability
1,NCI-H1666,0.775
2,NCI-H2023,0.589
3,NCI-H322M,0.229
4,HARA,0.346
5,NCI-H1395,0.462
6,SK-MES-1,0.412

# Same assay, conditions: first compound 0.03 µM
row,Cell Line,relative viability
1,NCI-H1666,0.798
2,NCI-H2023,0.586
3,NCI-H322M,0.233
4,NCI-H1395,0.396
5,SK-MES-1,0.417

# Same assay, conditions: first compound 0.09487 µM
row,Cell Line,relative viability
1,NCI-H1666,0.809
2,NCI-H2023,0.516
3,NCI-H322M,0.279
4,HARA,0.294
5,NCI-H1395,0.409
6,SK-MES-1,0.317

# Same assay, conditions: first compound 0.3 µM
row,Cell Line,relative viability
1,NCI-H1666,0.822
2,NCI-H2023,0.673
3,NCI-H322M,0.236
4,HARA,0.264
5,NCI-H1395,0.366
6,SK-MES-1,0.289

# Compound: CC(C)(C)c1nc(-c2cccc(NS(=O)(=O)c3c(F)cccc3F)c2F)c(-c2ccnc(N)n2)s1 [Dabrafenib] + O=C(CCCCCCC(=O)Nc1ccccc1)NO [Vorinostat] (partner 1 µM)
# Test: as above
# Details: first compound 0.003 µM
# Method in brief: as §1
row,Cell Line,relative viability
1,NCI-H1666,1.05
2,NCI-H2023,0.716
3,HARA,0.553

# Same assay, conditions: first compound 0.009487 µM
row,Cell Line,relative viability
1,NCI-H1666,0.937
2,NCI-H2023,0.717
3,NCI-H322M,0.962
4,HARA,0.644
5,NCI-H1395,0.699
6,SK-MES-1,1.05

# Same assay, conditions: first compound 0.03 µM
row,Cell Line,relative viability
1,NCI-H1666,1.19
2,NCI-H2023,0.733
3,NCI-H1395,0.719
4,SK-MES-1,1.14

# Same assay, conditions: first compound 0.09487 µM
row,Cell Line,relative viability
1,NCI-H1666,0.972
2,NCI-H2023,0.559
3,NCI-H322M,0.822
4,HARA,0.481
5,NCI-H1395,0.662
6,SK-MES-1,1.04

# Same assay, conditions: first compound 0.3 µM
row,Cell Line,relative viability
1,NCI-H1666,1.15
2,NCI-H2023,0.6
3,NCI-H322M,0.74
4,HARA,0.567
5,NCI-H1395,0.667
6,SK-MES-1,0.854

# Compound: NC(=O)c1ccc(N(C(N)=O)c2c(F)cccc2F)nc1-c1ccc(F)cc1F [VX-702] + Cc1cc(Nc2cc(N3CCN(C)CC3)nc(Sc3ccc(NC(=O)C4CC4)cc3)n2)n[nH]1 [Tozasertib] (partner 0.1 µM)
# Test: as above
# Details: first compound 0.02 µM
# Method in brief: as §1
row,Cell Line,relative viability
1,NCI-H1666,0.593
2,NCI-H2023,0.264
3,NCI-H322M,0.486
4,HARA,0.113
5,NCI-H1395,0.686
6,SK-MES-1,0.92

# Same assay, conditions: first compound 0.2 µM
row,Cell Line,relative viability
1,NCI-H2023,0.308
2,NCI-H322M,0.506
3,HARA,0.0909
4,NCI-H1395,0.767
5,SK-MES-1,0.944

# Same assay, conditions: first compound 0.6325 µM
row,Cell Line,relative viability
1,NCI-H1666,0.586
2,NCI-H2023,0.296
3,NCI-H322M,0.496
4,HARA,0.118
5,NCI-H1395,0.75
6,SK-MES-1,0.914

# Same assay, conditions: first compound 2 µM
row,Cell Line,relative viability
1,NCI-H1666,0.583
2,NCI-H2023,0.38
3,NCI-H322M,0.508
4,HARA,0.117
5,NCI-H1395,0.966
6,SK-MES-1,0.995
